# Measured values taken from PubChem BioAssay (NCI).
#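 How tested: cells in 96-well plates exposed to compound for 48 hours at five concentrations. TGI marks complete inhibition of growth.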
# Columns and labels:
# Experiment in all cases: NCI tumour cell line growth inhibition, 48 h
# [1] = tested on: HOP-62 NSCLC
# [2] = tested on: CCRF-CEM leukemia
# [3] = tested on: KM20L2 colon
# [4] = tested on: DMS 273 small cell lung
# [5] = tested on: MCF7 breast
# [6] = tested on: RXF 393 renal
# [7] = tested on: NCI/ADR-RES ovarian
# [8] = tested on: M19-MEL melanoma
# [9] = tested on: UACC-257 melanoma
# [10] = tested on: EKVX NSCLC
# [11] = tested on: NCI-H522 lung
# [12] = tested on: SNB-19 CNS
# [13] = tested on: SK-OV-3 ovarian
# [14] = tested on: HCC-2998 colon
# [15] = tested on: OVCAR-3 ovarian
# [16] = tested on: SW-620 colon
# [17] = tested on: SNB-78 CNS
# [18] = tested on: A549 NSCLC
# [19] = tested on: HOP-92 NSCLC
# [20] = tested on: HCT-15 colon
# [21] = tested on: SN12K1 renal
# [22] = tested on: OVCAR-4 ovarian
# [23] = tested on: P388 leukemia
# [24] = tested on: HL-60(TB) leukemia
# [25] = tested on: KM12 colon
# [26] = tested on: SF-295 CNS
# [27] = tested on: NCI-H226 lung
# [28] = tested on: SF-539 CNS
# [29] = tested on: UACC-62 melanoma
# [30] = tested on: XF 498 CNS
# [31] = tested on: RPMI-8226 leukemia
# [32] = tested on: HT29 colon
# [33] = tested on: MALME-3M melanoma
# [34] = tested on: IGROV1 ovarian
# [35] = tested on: UO-31 renal
# [36] = tested on: HOP-18 NSCLC
# [37] = tested on: DMS 114 small cell lung
# [38] = tested on: K-562 leukemia
# [39] = tested on: CAKI-1 renal
# [40] = tested on: DLD-1 colon
# [41] = tested on: COLO 205 colon
# [42] = tested on: SK-MEL-2 melanoma
# [43] = tested on: HCT-116 colon
# [44] = tested on: P388/ADR leukemia
# [45] = tested on: SF-268 CNS
# [46] = tested on: SNB-75 CNS
# [47] = tested on: SK-MEL-5 melanoma
# [48] = tested on: A498 renal
# [49] = tested on: NCI-H23 lung
# [50] = tested on: U251 CNS
# [51] = tested on: SK-MEL-28 melanoma
# [52] = tested on: SN12C renal
smiles,measurement,setting,value
COC(=O)c1nc(-c2ccc3c(n2)C(=O)C(N)=C(OC)C3=O)c(N)c(-c2ccc(OC)c(OC)c2O)c1C,TGI,[1],0.487 µM
same,TGI,[2],> 100 µM
same,TGI,[3],5.97 µM
same,TGI,[4],1.46 µM
same,TGI,[5],1.66 µM
same,TGI,[6],3.55 µM
same,TGI,[7],3.09 µM
same,TGI,[8],1.26 µM
same,TGI,[9],2.09 µM
same,TGI,[10],7.95 µM
same,TGI,[11],2.43 µM
same,TGI,[12],2.22 µM
same,TGI,[13],3.73 µM
same,TGI,[14],0.221 µM
same,TGI,[15],1.66 µM
same,TGI,[16],6.88 µM
same,TGI,[17],8.38 µM
same,TGI,[18],2.76 µM
same,TGI,[19],5.79 µM
same,TGI,[20],2.68 µM
same,TGI,[21],3.38 µM
same,TGI,[22],3.06 µM
same,TGI,[23],3.74 µM
same,TGI,[24],6.32 µM
same,TGI,[25],6.13 µM
same,TGI,[26],2.02 µM
same,TGI,[27],1.41 µM
same,TGI,[28],1.39 µM
same,TGI,[29],1.27 µM
same,TGI,[30],2.85 µM
same,TGI,[31],3.6 µM
same,TGI,[32],4.43 µM
same,TGI,[33],1.74 µM
same,TGI,[34],4.77 µM
same,TGI,[35],2.46 µM
same,TGI,[36],17.8 µM
same,TGI,[37],2.31 µM
same,TGI,[38],5.63 µM
same,TGI,[39],3.28 µM
same,TGI,[40],3.42 µM
same,TGI,[41],3.61 µM
same,TGI,[42],3.26 µM
same,TGI,[43],2.14 µM
same,TGI,[44],3.17 µM
same,TGI,[45],5.25 µM
same,TGI,[46],3.73 µM
same,TGI,[47],1.96 µM
same,TGI,[48],3.17 µM
same,TGI,[49],1.38 µM
same,TGI,[50],2.37 µM
same,TGI,[51],2.77 µM
same,TGI,[52],2.69 µM
